Key:
CD4+CD25+ Treg cells = test: Treg cell functional assay (3H-thymidine proliferation, cells from treated mice); type: cell-based, mouse
[1] = tested on: CD19+CD69+ cells (activated B cells); test: B cell activation in splenocytes by flow cytometry; type: in vivo, mouse; conditions: 120 mg/kg by gavage daily; week 34; EGCG-treated vs disease mice
Method: Female NZB/W F1 mice were purchased from the Animal Center of the National Taiwan University (Taipei, Taiwan, ROC) and, at 12 weeks of age, were divided into two groups, one of which was given normal saline and served as the disease control, while the other was given 120 mg/kg body weight of EGCG (Ryss Lab, Inc., CA, USA) (this dose is a slight modification of those used in previous in vivo studies) by gavage daily till sacrificed at 34-weeks-old. 8-Week-old NZB/W F1 female mice (prior to onset of autoantibody production) were used as normal controls. Urine samples were collected in metabolic cages every 2 weeks and urine protein levels were measured, and serum samples were used to measure serum levels of blood urea nitrogen (BUN) and creatinine (Cr) as described previously (Ka, S. M. et al. Decoy receptor 3 ameliorates an autoimmune crescentic glomerulonephritis model in mice. J Am Soc Nephrol 18:2473-2485; 2007). All animal experiments were performed upon the ethical approval of the Institutional Animal Care and Use Committee of the National Defense Medical Center, Taiwan and according to the ethical rules in the NIH Guide for the Care and Use of Laboratory Animals. […]

NF-κB p65 = test: IHC of NF-κB p65 in kidney; type: in vivo, mouse; conditions: 120 mg/kg by gavage daily; week 34; increase seen in disease control
Method: (§1) Female NZB/W F1 mice were purchased from the Animal Center of the National Taiwan University (Taipei, Taiwan, ROC) and, at 12 weeks of age, were divided into two groups, one of which was given normal saline and served as the disease control, while the other was given 120 mg/kg body weight of EGCG (Ryss Lab, Inc., CA, USA) (this dose is a slight modification of those used in previous in vivo studies) by gavage daily till sacrificed at 34-weeks-old. 8-Week-old NZB/W F1 female mice (prior to onset of autoantibody production) were used as normal controls. Urine samples were collected in metabolic cages every 2 weeks and urine protein levels were measured, and serum samples were used to measure serum levels of blood urea nitrogen (BUN) and creatinine (Cr) as described previously (Ka, S. M. et al. Decoy receptor 3 ameliorates an autoimmune crescentic glomerulonephritis model in mice. J Am Soc Nephrol 18:2473-2485; 2007). All animal experiments were performed upon the ethical approval of the Institutional Animal Care and Use Committee of the National Defense Medical Center, Taiwan and according to the ethical rules in the NIH Guide for the Care and Use of Laboratory Animals.

superoxide anion [2] = test: Kidney in-situ ROS production by dihydroethidium (DHE) labeling; type: in vivo, mouse; conditions: 120 mg/kg by gavage daily, week 34
Method: Female NZB/W F1 mice were purchased from the Animal Center of the National Taiwan University (Taipei, Taiwan, ROC) and, at 12 weeks of age, were divided into two groups, one of which was given normal saline and served as the disease control, while the other was given 120 mg/kg body weight of EGCG (Ryss Lab, Inc., CA, USA) (this dose is a slight modification of those used in previous in vivo studies) by gavage daily till sacrificed at 34-weeks-old. 8-Week-old NZB/W F1 female mice (prior to onset of autoantibody production) were used as normal controls. Urine samples were collected in metabolic cages every 2 weeks and urine protein levels were measured, and serum samples were used to measure serum levels of blood urea nitrogen (BUN) and creatinine (Cr) as described previously (Ka, S. M. et al. Decoy receptor 3 ameliorates an autoimmune crescentic glomerulonephritis model in mice. J Am Soc Nephrol 18:2473-2485; 2007). […] Kidney in situ superoxide anion production was determined by dihydroethidium (DHE) labeling. Fluorescent images were quantified by counting the percentage of positive nuclei in the total nuclei per kidney cross-section. Superoxide anion levels in serum and kidney tissues were measured as described previously and the results expressed as reactive luminescence units (RLU) per 15 min per milligram dry weight (i.e., RLU/15 min/mg dry weight).

caspase-1 = test: Western blot of caspase-1 p20 in kidney; type: in vivo, mouse; conditions: 120 mg/kg by gavage daily, week 34
Method: (§2) Female NZB/W F1 mice were purchased from the Animal Center of the National Taiwan University (Taipei, Taiwan, ROC) and, at 12 weeks of age, were divided into two groups, one of which was given normal saline and served as the disease control, while the other was given 120 mg/kg body weight of EGCG (Ryss Lab, Inc., CA, USA) (this dose is a slight modification of those used in previous in vivo studies) by gavage daily till sacrificed at 34-weeks-old. 8-Week-old NZB/W F1 female mice (prior to onset of autoantibody production) were used as normal controls. Urine samples were collected in metabolic cages every 2 weeks and urine protein levels were measured, and serum samples were used to measure serum levels of blood urea nitrogen (BUN) and creatinine (Cr) as described previously (Ka, S. M. et al. Decoy receptor 3 ameliorates an autoimmune crescentic glomerulonephritis model in mice. J Am Soc Nephrol 18:2473-2485; 2007). All animal experiments were performed upon the ethical approval of the Institutional Animal Care and Use Committee of the National Defense Medical Center, Taiwan and according to the ethical rules in the NIH Guide for the Care and Use of Laboratory Animals. […] Antibodies to histone H3 (Cell Signaling) or β-actin (Santa Cruz) were used as internal controls for the nuclear and cytosolic target proteins, respectively.

Nrf2 = test: Western blot of nuclear Nrf2 in kidney; type: in vivo, mouse; conditions: 120 mg/kg by gavage daily, week 34, compared to disease controls
Method: as §2

[3] = tested on: glutathione peroxidase (GPx); test: GPx activity in renal cortex lysates; type: in vivo, mouse; conditions: 120 mg/kg by gavage daily; week 34; compared with increase in disease control mice
Method: as §1

superoxide anion [4] = test: Superoxide anion (ROS) levels in serum, urine and kidney; type: in vivo, mouse; conditions: 120 mg/kg by gavage daily, week 34
Method: Female NZB/W F1 mice were purchased from the Animal Center of the National Taiwan University (Taipei, Taiwan, ROC) and, at 12 weeks of age, were divided into two groups, one of which was given normal saline and served as the disease control, while the other was given 120 mg/kg body weight of EGCG (Ryss Lab, Inc., CA, USA) (this dose is a slight modification of those used in previous in vivo studies) by gavage daily till sacrificed at 34-weeks-old. 8-Week-old NZB/W F1 female mice (prior to onset of autoantibody production) were used as normal controls. Urine samples were collected in metabolic cages every 2 weeks and urine protein levels were measured, and serum samples were used to measure serum levels of blood urea nitrogen (BUN) and creatinine (Cr) as described previously (Ka, S. M. et al. Decoy receptor 3 ameliorates an autoimmune crescentic glomerulonephritis model in mice. J Am Soc Nephrol 18:2473-2485; 2007). All animal experiments were performed upon the ethical approval of the Institutional Animal Care and Use Committee of the National Defense Medical Center, Taiwan and according to the ethical rules in the NIH Guide for the Care and Use of Laboratory Animals. Kidney in situ superoxide anion production was determined by dihydroethidium (DHE) labeling. Fluorescent images were quantified by counting the percentage of positive nuclei in the total nuclei per kidney cross-section. Superoxide anion levels in serum and kidney tissues were measured as described previously and the results expressed as reactive luminescence units (RLU) per 15 min per milligram dry weight (i.e., RLU/15 min/mg dry weight).

Epigallocatechin-3-gallate [EGCG] was tested, and the “proliferation of Treg cells incubated alone following anti-CD3 antibody stimulation” value (CD4+CD25+ Treg cells; Treg cells from EGCG-treated mice) was “did not proliferate”, the “inhibition of responder T cell proliferation by added Treg cells (Treg cell activity)” value (CD4+CD25+ Treg cells; Treg cells from EGCG-treated mice vs Treg cells from disease control mice, titration) was “much greater” and the “proliferation of responder T cells incubated alone following anti-CD3 antibody stimulation” value (CD4+CD25+ Treg cells; responder T cells from EGCG-treated vs disease control mice) was “proliferated, but to an equal extent”. The “percentage of CD19+CD69+ cells (activated B cells) in CD19+ splenocytes” value [1] was “no significant difference”, the “NF-κB p65 activity in the kidney (IHC, nuclear location)” value (NF-κB p65) was “markedly inhibited” and the “DHE fluorescence (in-situ ROS production in renal tissue)” value (superoxide anion [2]) was “very low”. For the same substance, the “caspase-1 activation (appearance of the p20 subunit) in kidney” value (caspase-1) was “significantly inhibited”, the “Nrf2 translocation into the nucleus” value (Nrf2) was “markedly increased” and the “GPx activity in the kidney” value [3] was “even larger increase”. The “levels of superoxide anion in the kidney” value (superoxide anion [4]; kidney) was “inhibited”, the “superoxide anion levels in the serum” value (superoxide anion [4]; serum) was “decreased by EGCG treatment to levels similar to those in normal control mice” and the “superoxide anion levels in the urine” value (superoxide anion [4]; urine) was “decreased by EGCG treatment to levels similar to those in normal control mice”.
